Laboratory results from publication PMC9590610 (Chemical biology & drug design, 2020).
Values belong to the molecule of their own block, whether it stands above or below them.

How the values were obtained:
[1] = target: FAK (focal adhesion kinase) FERM domain (Homo sapiens, UniProt Q05397); format: binding
[2] = target: Recombinant HER2-ICD (Intracellular Domain) (human, UniProt P04626 676-1255)

IC50 [1]: 187 nM
Molecule: CC(Oc1ccc(C(=O)NCCN2CCN(C)CC2c2ccccc2)cn1)c1ccccc1 (racemic) [VS14, (rac)-N-(2-(4-methyl-2-phenylpiperazin-1-yl)ethyl)-6-(1-phenylethoxy)nicotinamide]

IC50 [1]: 170 nM
Molecule: Cc1nc(SC(C)C(=O)Nc2ccc3[nH]c(=O)[nH]c3c2)n(C2CCCC2)c1C (racemic) [VS4, (rac)-2-((1-cyclopentyl-4,5-dimethyl-1H-imidazol-2-yl)thio)-N-(2-oxo-2,3-dihydro-1H-benzo[d]imidazol-5-yl)propanamide]

Kd [2]: 571 nM
B1: GST-FAK-NT (FERM) (domain or fragment, UniProt Q05397 35-355, looked up)
chain: RVLKVFHYFESNSEPTTWASIIRHGDATDVRGIIQKIVDSHKVKHVACYGFRLSHLRSEEVHWLHVDMGVSSVREKYELAHPPEEWKYELRIRYLPKGFLNQFTEDKPTLNFFYQQVKSDYMLEIADQVDQEIALKLGCLEIRRSYWEMRGNALEKKSNYEVLEKDVGLKRFFPKSLLDSVKAKTLRKLIQQTFRQFANLNREESILKFFEILSPVYRFDKECFKCALGSSWIISVELAIGPEEGISYLTDKGCNPTHLADFTQVQTIQYSNSEDKDRKGMLQLKIAGAPEPLTVTAPSLTIAENMADLIDGYCRLVNGTS
